One assay deals with CD19+ Raji cells. The experiment in a line: flow cytometry for presence of FL on hapten-labeled cells. Format: cell-based. The procedure: Hapten-labeled cells were prepared by either attaching the hapten, fluorescein (FL), to the cells via an integrated phospholipid or via an antibody. CD19+ Raji cells (lymphoma cell line) were incubated either overnight with 5 μM FL-DHPE (FIG. 3B), or for 20 min with an antiCD19 antibody labeled with fluorescein isothiocyanate (FITC). The cells were washed, stained, and analyzed by flow cytometry for the presence of FL. […] The levels of FL were higher for cells treated with FL-DHPE compared to cells treated with the antiCD19 antibody (FIG. 4A). This was consistent with different tethering techniques providing different levels of hapten on the surface of a cell.
In general terms: Flow cytometry measures light scatter and fluorescence of single cells or particles in a stream.

In assay [1] the test system is CD19+K562 cells (hapten-labeled). The experiment in a line: cytokine release assay of antiFL CAR T cells against hapten-labelled cells. Format: cell-based. The settings on record: target cells prepared with 5 μM FL-DHPE. The procedure: Hapten-labeled cells were prepared. CD19^+K562 cells were incubated either overnight with 5 μM FL-DHPE or for 20 min with an CD19 antibody labeled with FITC. The hapten-labeled cells were incubated with either one of two antiFL CAR T cells (FITC-E2 scFv, or 4M5.3 scFv). […] Hudecek M, et al., (2013) Clin Cancer Res. 19:3153-64, which is incorporated by reference in its entirety.
The levels of cytokines released by the antiFL CAR T cells were determined. […] The levels of released IFN-7, and TNF-α were lower for hapten-labeled cells contacted with the antiFL(4M5.3) CART cell. Also, there was a trend for hapten-labeled cells prepared with FL-DHPE inducing higher levels of cytokine release compared to hapten-labeled cells prepared with an CD19 antibody labeled with FITC.

As for `CCCCCCCCCCCCCCCC(=O)OCC(COP(=O)(O)OCCNC(=S)Nc1ccc2c(c1)C(=O)OC21c2ccc(O)cc2Oc2cc(O)ccc21)OC(=O)CCCCCCCCCCCCCCC` (stereo not drawn) [FL-DHPE, N-(Fluorescein-5-Thiocarbamoyl)-1,2-Dihexadecanoyl-sn-Glycero-3-Phosphoethanolamine], in the assay with CD19+ Raji cells (5 μM FL-DHPE overnight), the “presence of FL, shift compared to untreated control cells” value is listed as “positive shift”. Further, the “levels of FL compared to cells treated with the antiCD19 antibody” value in the assay on CD19+ Raji cells (5 μM FL-DHPE overnight vs antibody 20 min) was “higher”. Besides, the “cytokine release compared to hapten-labeled cells prepared with CD19 antibody labeled with FITC (trend)” value in assay [1] is on record as “higher levels”.

Source of the values: patent US20260193311A1, “METHODS AND COMPOSITIONS FOR STIMULATION OF CHIMERIC ANTIGEN RECEPTOR T CELLS WITH HAPTEN LABELLED CELLS” (Seattle Children's Hospital (dba Seattle Children's …, priority 2018, published 2026).
